Where a SMILES comes first, the peptide text is derived from it. The star is where a group is joined. Cbz = O=C(OCc1ccccc1)*
Columns and labels:
mouse hepatocytes = assay: Effects of DHT and E2 on lipid metabolism and MPK38 kinase activity in hepatocytes; format: cell-based; conditions: 10 nM each, compared with adipocytes
MPK38-Mdm2 complex = assay: Endogenous MPK38-Mdm2 complex formation (immunoprecipitation/immunoblot) in adipocytes; format: cell-based, mouse; conditions: vs control group not treated with DHT or E2
Method: Furthermore, since MPK38 physically interacts with Mdm2, whether or not DHT and E2 are involved in the decomposition of MPK38 mediated by Mdm2 was determined.

MPK38-ZPR9 complex = assay: Endogenous MPK38-ZPR9 complex formation in adipocytes; format: cell-based, mouse; conditions: both females and males
Method: (§1) In order to further determine whether or not testosterone increases the stability of MPK38, the effect of DHT on the formation of a complex of MPK38 with either ZPR9 or Trx was analyzed. The reason for this is that ZPR9 or Trx acts as a stabilizer or destabilizer of MPK38.

ASK1/TGF-β/p53 signaling = assay: MPK38-dependent ASK1/TGF-β/p53 signaling in adipocytes treated with DHT or E2; format: cell-based, mouse; conditions: vs control group not treated with DHT or E2; H2O2, TGF-β1 or 5FU stimulation
MPK38-Trx complex = assay: Endogenous MPK38-Trx complex formation in adipocytes; format: cell-based, mouse; conditions: both females and males
Method: as §1

MPK38 = assay: Immunoblot analysis of MPK38 stability and ubiquitination in adipocytes treated with DHT or E2; format: cell-based, mouse; conditions: for stability of MPK38: adipocytes of 4.5-month-old male and female mice, 10 nM, 24 hours, then cycloheximide 20 μg/ml; for endogenous ubiquitination of MPK38: adipocytes, regardless of gender
Method: In order to determine whether or not sex hormones such as testosterone and estrogen affect the kinase activity and expression of MPK38, immunoblot analysis was performed on adipocytes derived from 4.5-month-old normal male and female mice treated with DHT and E2.

[1] = system: castrated MPK38−/− male mice; assay: Testosterone replacement in castrated male mice; format: in vivo, mouse
Method: A mixture of ketamine (34 mg/kg), xylazine (6.8 mg/kg) and acepromazine (1.1 mg/kg) was dissolved in saline, and the mice were anesthetized using this solution, and then surgery was performed. The surgical site was shaved and washed, and then sterilized with 70% alcohol. For castration, after abdomen midline incision, castration was performed such that the testes and attached fat pads were left intact. The testes were removed through an incision, but the testicular ducts and blood vessels supplying the testes were ligated with sterile silk suture and the testicular fat pads were put back, followed by closure with sterile silk suture. For sham castration, the testes with attached fat pads were exposed and put back without organ extirpation after abdominal incision, and the incision was closed with sterile silk suture. For ovariectomy, after midline abdominal incision, the uterus, oviducts, and ovaries with the fat pads were left intact. The ovaries were removed through an incision, but the oviduct and blood vessels supplying the ovaries were ligated with sterile silk suture and the ovarian fat pads were put back, followed by closure with sterile silk suture. […] After surgery, mice were monitored until they are fully recovered from anesthesia. […]

Row | Structure (SMILES) | effects on lipid metabolism and MPK38 kinase activity in liver cells (mouse hepatocytes) | formation of endogenous MPK38-Mdm2 complex (MPK38-Mdm2 complex) | formation of endogenous MPK38-ZPR9 complex (MPK38-ZPR9 complex) | ASK1/TGF-β/p53 signaling (ASK1/TGF-β/p53 signaling) | formation of MPK38-Trx complex (MPK38-Trx complex) | stability of MPK38 (MPK38) | endogenous ubiquitination of MPK38 (MPK38) | stability of MPK38 on exposure to proteasome inhibitor (MPK38; 10 μM MG132, treated vs untreated group) | effects of castration on metabolism after testosterone replacement ([1]; castrated male mice, T replacement (FIG. 14)) | glucose or lipid metabolism ([1]; middle-aged (7 months old) MPK38−/− male mice, testosterone pellets 25 μg/day)
1 | C[C@]12CC[C@@H]3c4ccc(O)cc4CC[C@H]3[C@@H]1CC[C@@H]2O [E2] | similar | increased | results opposite those of treatment with DHT | decreased | results opposite those of treatment with DHT | decreased | increased | – | – | –
2 | CC(C)C[C@@H](C=O)NC(=O)[C@H](CC(C)C)NC(=O)[C@H](CC(C)C)NC(=O)OCc1ccccc1 [MG132] (Cbz-Leu-Leu-Leu-aldehyde) | – | – | – | – | – | – | – | increase | – | –
3 | C[C@]12CC[C@H]3[C@@H](CCC4=CC(=O)CC[C@@]43C)[C@@H]1CC[C@@H]2O [testosterone] | – | – | – | – | – | – | – | – | effects opposite to all of these results | did not affect
4 | C[C@]12CCC(=O)C[C@@H]1CC[C@@H]1[C@@H]2CC[C@]2(C)[C@@H](O)CC[C@@H]12 [DHT] | similar | decreased | increased | increased | decreased | increased | decreased | – | – | –
